Data from paper PMC8841740, “Fluorescent Ligand-Based Discovery of Small-Molecule Sulfonamide Agonists for GPR120” (Frontiers in Chemistry, 2022).
Values belong to the compound of their own block, whether it stands above or below them.

Experiments:
GPR120 [1] = target: T1, GPR120 (Homo sapiens, UniProt Q5NUL3); assay: BRET activity test (β-arrestin-2 recruitment, GPR120-YFP / β-arrestin-2-Rluc in HEK293 cells); type: cell-based; design: host or cells: HEK293 (transfected with both plasmids)
T1 sequence (Q5NUL3 1-361): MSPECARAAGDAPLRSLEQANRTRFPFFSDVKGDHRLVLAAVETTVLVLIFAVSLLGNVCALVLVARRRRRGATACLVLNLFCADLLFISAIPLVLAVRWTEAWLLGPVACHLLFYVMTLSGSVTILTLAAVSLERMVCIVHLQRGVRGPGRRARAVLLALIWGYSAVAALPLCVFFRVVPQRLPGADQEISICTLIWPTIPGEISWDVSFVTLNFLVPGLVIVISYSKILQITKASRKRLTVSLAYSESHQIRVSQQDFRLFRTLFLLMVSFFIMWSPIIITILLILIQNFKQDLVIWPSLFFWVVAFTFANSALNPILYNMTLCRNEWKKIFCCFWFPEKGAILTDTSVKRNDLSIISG
Protocol: GPR120-YFP and β-arresting-2-Rluc plasmids were transfected into HEK293 cells. After a 24-h incubation, the cells were seeded in a black 96-well plate (100 μl, 20,000 cells per well). Followed by a 24-h incubation, the solution was removed from the plate, and compounds with different concentrations (100 μl per well) and coelenterazine (10 μM, 100 μl per well) were added, followed by the fluorescence intensity was measured at 460 and 520 nm with the microplate reader ([Christiansen et al., 2016]; [Hill et al., 2018]).

db/db mice [2] = assay: Glucose tolerance test in db/db mice; type: in vivo
Protocol: On the last day of the dosing cycle, the fasting blood glucose of mice was measured (without food and water for 6 h), and glucose solution (100 mg/kg) was injected. The blood glucose was measured at […] (5, 10, 30, 60, and 120 min). Finally, the area under the curve was analyzed with SPSS 24 software.

GPR120 [3] = conditions: cited from earlier work
FFA4 = test system: FFA4; design: method as in Sparks et al., 2014; conditions: in Figure 3; ref Sparks et al., 2014; cited from earlier work
GPR120 [4] = target: T1, GPR120; assay: GPR120 Ca2+ flow assay in HEK293 cells stably transfecting the GPR120-Rluc gene; type: cell-based; design: expressed in transfected cells
Protocol: Ca^2+ flow activity was determined in HEK293 cells stably transfecting the GPR120-Rluc gene. After incubating the cells for 24 h, the medium was removed from the plate, and the cells were washed with HBSS buffer (without Ca^2+ and Mg^2+). Subsequently, a 2-μM Fluo-4 AM working solution in HBSS buffer (without Ca^2+ and Mg^2+) was added to the plate (40 μl per well).

FFA1 = test system: FFA1; design: method as in Sparks et al., 2014; conditions: in Figure 3; ref Sparks et al., 2014; cited from earlier work
GPR120 [5] = target: T1, GPR120; assay: BRET competitive binding experiment with probe N1; design: expressed in transfected cells; conditions: probe N1 400 nM, read-out: pKi (N1) (converted)
Protocol: HEK293 cells stably transfected with the GPR120-Rluc gene were seeded in a black 96-well plate (100 μl, 2 × 10^4 cells per well). After the cells were incubated for 24 h, the medium was removed, and probe N1 (400 nM, 50 μl per well) was added. […] Followed by a 40-min incubation, coelenterazine was added to (final concentration: 10 μM, 50 μl per well) the plates. Thenceforward, the fluorescence intensity was measured at 450 and 550 nm with the microplate reader after a 10-min incubation.

GPR120 [6] = target: T1, GPR120; assay: BRET kinetic binding experiment of probe N1; design: expressed in transfected cells
Protocol: HEK293 cells stably transfecting the GPR120-Rluc gene were seeded in two entirely black 96-well plates (100 μl, 2 × 10^4 cells per well). After a 24-h incubation, the medium was removed from the non-specific plate, coelenterazine was added to (final concentration: 10 μM, 50 μl per well) the plates, and BRET value was measured after a 5-min incubation. Probe N1 (500 nM, 100 μl per well) was then added, and the BRET value was recorded in a 30-s interval for 6 minutes. Finally, GSK137647A was added (50 μl per well), and BRET value was measured in a 30-s interval for 30 min.

GPR120 [7] = target: T1, GPR120; assay: BRET saturation experiment of probe N1; design: expressed in transfected cells; conditions: 15 μM GSK134647A for non-specific binding
Protocol: HEK293 cells stably transfecting the GPR120-Rluc gene were seeded in two black 96-well plates (100 μl, 2 × 10^4 cells per well). After incubating the cells for 24 h, the medium of the non-specific plate was removed, and positive control GSK134647A (15 μM, 50 μl per well) was added into each well. After a 40-min incubation, the medium was removed, and probe N1 was added into two plates (100 μl per well). Followed by incubation for 40 min, coelenterazine was added to the plates (final concentration: 10 μM, 100 μl per well for specific plates; 50 μl per well for non-specific plates). Finally, the fluorescence intensity was measured at 460 and 520 nm with the microplate reader after a 10-min incubation ([Christiansen et al., 2016]).

GPR40 = target: T2, GPR40 (Homo sapiens, UniProt O14842); assay: GPR40 Ca2+ flow assay in CHO cells with transient GPR40 gene; type: cell-based
T2 construct: expressed in transfected cells; host or cells: CHO (transient)
Protocol: Ca^2+ flow activity was determined in HEK293 cells stably transfecting the GPR120-Rluc gene. After incubating the cells for 24 h, the medium was removed from the plate, and the cells were washed with HBSS buffer (without Ca^2+ and Mg^2+). Subsequently, a 2-μM Fluo-4 AM working solution in HBSS buffer (without Ca^2+ and Mg^2+) was added to the plate (40 μl per well). After incubating the cells for 20 min at 37°C, compound solution at different concentrations in HBSS buffer (per well 160 μl) was added. Followed by a 40-min incubation, the solution was removed from the plate, HEPES buffer (200 μl per well) was added, and the fluorescence intensity was detected using the microplate reader (Ex: 488 nm; Em: 520 nm) ([Watterson et al., 2017]).
Ca^2+ flow activity was determined in CHO cells with transient GPR40 gene by the same method as well, in which the GPR40 agonist TAK875 was used as a positive control.

GPR120 [8] = target: T1, GPR120; assay: Fluorescence imaging in HEK293 cells (stably transfected with GPR120) and PC-3 cells; type: cell-based; design: expressed in transfected cells
Protocol: HEK293 and PC-3 cells were seeded in fluorescent confocal dishes (5 × 10^3 per well). After the cells were iron-walled, the medium was removed from the dishes, the cells were washed once with a serum-free medium, and the probe was added. After incubating the cells for 10 min, the confocal dishes were observed by an inverted fluorescence microscope.

[9] = Optical property of fluorescent probes; type: physicochemical
Protocol: The stocking solution of probes was diluted with acetonitrile to 40 μM, and their ultraviolet absorption spectrum was scanned with an ultraviolet spectrophotometer. Secondly, the excitation and emission spectra of probes at 10, 20, 30, and 40 μM with PBS buffer were measured with a microplate reader. Moreover, the excitation and emission spectrum were recorded in four solvents: MeCN, DMSO, H2O, and EA, respectively.

GPR120 [10] = assay: Bias of agonists (Gq versus β-arrestin2 pathway); type: cell-based; conditions: reference GSK137647A pathways P1 Gq, P2 β-arrestin2
Text: The bias was quantified by Eq. 1, in which β is the bias factor, Emax is the maximum effect produced by the agonist, and Pl and P2 represents the Gq and β-arrestin2 signal pathway, respectively.
Formula 1: β=log((Emax,P1/EC50,P1EC50,P2/Emax,P2)lig×(Emax,P2/EC50,P2EC50,P1/Emax,P1)ref) (1)

db/db mice [11] = assay: Fasting blood glucose in db/db mice after 4 weeks of administration; type: in vivo; conditions: gavage once a day
Protocol: (§1) All animal studies were approved by the Ethics Committee and IACUC of Cheeloo College of Medicine, Shandong University, and were conducted in compliance with European Guidelines for the Care and Use of Laboratory Animals. After adaptive feeding for 10–15 days, the db/db mice were divided into positive control group (30 mg/kg), low content compound group (10 mg/kg), high content compound group (30 mg/kg), and negative control group (the same volume dosing solvent). These mice were administrated by gavage once a day (administration volume, 20 ml/kg) for four consecutive weeks. During the administration period, the fasting blood glucose (without food and water for 6 h) was measured twice a week by using a blood glucose meter. The blood glucose level was measured for four consecutive weeks. The data was processed with Graphpad 8.2 software ([Cox et al., 2017]; [Zhang et al., 2017]).

GPR120 [12] = target: T1, GPR120; assay: Preliminary screening of agonists by BRET competition with probe N1; type: binding; design: expressed in transfected cells; conditions: 10 μM compound, probe N1 400 nM
Protocol: HEK293 cells stably transfected with the GPR120-Rluc gene were seeded in a black 96-well plate (100 μl, 2 × 10^4 cells per well). After a 24-h incubation, the medium was removed, probe N1 (400 nM, 50 μl per well) was added, and 10 μM of the compound was added after a 30-min incubation as well. Followed by a 40-min incubation, coelenterazine (final concentration: 10 μM, 50 μl per well) was added to the plate. Afterward, the fluorescence intensity was measured at 450 and 550 nm with the microplate reader after another 10-min incubation.

[13] = Weight changes of db/db mice during four weeks of administration; type: in vivo
Protocol: as §1

[14] = GPR120, β-arrestin-2 activity test, read-out: pEC50 BRET (converted)
[15] = GPR120, Ca2+ flow, HEK293 GPR120-Rluc cells, read-out: pEC50 Ca2+ assay (converted)

EC50 (GPR120 [1]; [14]): 0.178 µM | EC50 (GPR120 [4]; [15]): 0.0447 µM | pEC50 (Ca2+ assay) (GPR120 [4]; GPR120, Table 2): 7.35 ± 0.59 | Ki (GPR120 [5]): 0.11 µM
Compound: COc1ccc(S(=O)(=O)Nc2c(C)cc(C)cc2C)cc1 [GSK137647A, reference compound]
reduction of blood glucose AUC0–120 min (db/db mice [2]; 30 mg/kg): 19.3% | pEC50 (Literature) (GPR120 [3]): 6.30 ± 0.2^16 | FFA4 Human pEC50 (FFA4): 6.3(0.17) | FFA1 Human pEC50 (FFA1): < 4.5

time to reach a stable state of dissociation from GPR120 (GPR120 [6]; after adding excess GSK137647A): 30 min | Kd (GPR120 [6]; kinetic binding experiment): 0.273 µM | time for binding to GPR120 to reach saturation (GPR120 [6]; probe 500 nM): ≤ 6 min | koff (GPR120 [6]; probe 500 nM, dissociation by GSK137647A (10 μM), read-out: off-rate koff (converted)): 0.00113 s⁻¹ | kon (GPR120 [6]; probe 500 nM, read-out: on-rate kon (converted)): 4150 M⁻¹ s⁻¹ | EC50 (GPR120 [1]; [14]): 0.427 µM | melting point: 230 to 231 °C | Kd (GPR120 [7]): 1.12 ± 0.6 µM | EC50 (GPR120 [4]; [15]): 0.891 µM | Ca2+ response to GPR40 compared with TAK875 (GPR40; TAK875 as positive control): much lower than that of TAK875 | fluorescence intensity in cell imaging (GPR120 [8]; HEK293 and PC-3 cells): much greater than that of N2 and N3 | λabs ([9]; MeCN): 419 nm | Φ (absolute quantum yield) ([9]; PBS): 3.73% | λem ([9]; PBS): 562 nm | λex ([9]; PBS): 444 nm | SS (stokes shift) ([9]; PBS buffer (pH = 7.4)): 118 nm
Compound: Cc1cc(C)c(NS(=O)(=O)c2ccc(NCCN3C(=O)c4cccc5c(N(C)C)ccc(c45)C3=O)cc2)c(C)c1 [Compound N1, 4-((2-(6-(Dimethylamino)-1,3-dioxo-1H-benzo[de]isoquinolin-2(3H)-yl)ethyl)amino)-N-mesitylbenzenesulfonamide]

Emax (FFA4 β-arrestin2) (GPR120 [1]; GSK137647A used as a standard): 1.12 | EC50 (GPR120 [1]; Table 3, read-out: FFA4 (β-arrestin2 pEC50) (converted)): 0.0347 µM | melting point: 148 to 149 °C | Emax (FFA4 Ca2+) (GPR120 [4]; GSK137647A used as a standard): 1.22 | EC50 (GPR120 [4]; Table 3, read-out: FFA4 (Ca2+ pEC50) (converted)): 0.00537 µM | EC50 (GPR40; CHO cells, GPR40, read-out: FFA1 (Ca2+ pEC50) (converted)): > 50.1 µM | inhibition rate in BRET screening compared with GSK137647A (GPR120 [12]): higher than GSK137647A | fluorescence intensity of N1 after co-incubation (competitive cell imaging) (GPR120 [8]; N1 0.5 μM and D5 10 μM, HEK293 cells stably transfected with GPR120): decreased significantly
Compound: O=S(=O)(Nc1ccc(F)cc1)c1ccc(-c2ccc(OC(F)(F)F)cc2)cc1 [Compound D5, N-(4-Fluorophenyl)-4′-(Trifluoromethoxy)-[1,1′-Biphenyl]-4-Sulfonamide]
bias (bias factor, Gq vs β-arrestin2) (GPR120 [10]): relatively biased towards the Gq pathway | fasting blood glucose-lowering level compared with GSK137647A (db/db mice [11]; 10 mg/kg): the same blood glucose-lowering level | fasting blood glucose-lowering level compared with GSK137647A (db/db mice [11]; 30 mg/kg): a higher blood-glucose-lowering level | reduction of blood glucose AUC0–120 min (db/db mice [2]; 10 mg/kg): 15.3% | reduction of blood glucose AUC0–120 min (db/db mice [2]; 30 mg/kg): 30.3% | weight change ([13]; 10 mg/kg): reached a stable level in the fourth week | weight change ([13]; 30 mg/kg): decreased in the fourth week
